One assay has as its system 3T3-L1 cells. Put plainly: adipogenesis inhibition, glucose uptake of MDI-induced 3T3-L1 preadipocytes. Type of assay: cell-based. The note with it: 0.004%, 0.02%, 0.05%, 0.1%; glucose uptake ten days after differentiation induction. An excerpt: Inhibitory effect of GI5 (5) and nuzhenide (3) on undifferentiated 3T3-L1 cells. The major component of weight gain is deposition of adipose tissue in body through the adipogenesis process. Adipogenesis is characterized by increase in the size and number of fat cells. The secoiridoids, GI5 and nuzhenide isolated from F. excelsior, have shown significant and mild adipogenesis inhibitory activity, respectively, by blocking the pathway from undifferentiated 3T3-L1 cell to differentiated adipocyte to achieve an effect on bodyweight control and body fat loss. 3T3-L1 preadipocytes were induced to differentiate with methylisobutylxanthine, dexamethasone, and insulin (MDI) hormonal cocktail in the presence or absence of compounds. Ten days after differentiation induction, the treated cells were assayed for their respective glucose uptake activity, which is an indirect measurement of differentiation (adipogenesis) because preadipocytes are incapable of insulin-induced, glucose transport-4 (GLUT4)-mediated glucose uptake while fully differentiate adipocytes are capable of this uptake. Compounds, GI5 and nuzhenide, were used at four different concentrations: 0.004%, 0.02%, 0.05%, and 0.1%. Untreated (undifferentiated) cells were used as a negative control while insulin was used as a positive control. Methanol (MeOH), the solvent of the compounds, was also used as a control.

For another assay, the target named is T1, PPAR-alpha (Homo sapiens, UniProt Q07869).
T1 sequence (Q07869 1-468): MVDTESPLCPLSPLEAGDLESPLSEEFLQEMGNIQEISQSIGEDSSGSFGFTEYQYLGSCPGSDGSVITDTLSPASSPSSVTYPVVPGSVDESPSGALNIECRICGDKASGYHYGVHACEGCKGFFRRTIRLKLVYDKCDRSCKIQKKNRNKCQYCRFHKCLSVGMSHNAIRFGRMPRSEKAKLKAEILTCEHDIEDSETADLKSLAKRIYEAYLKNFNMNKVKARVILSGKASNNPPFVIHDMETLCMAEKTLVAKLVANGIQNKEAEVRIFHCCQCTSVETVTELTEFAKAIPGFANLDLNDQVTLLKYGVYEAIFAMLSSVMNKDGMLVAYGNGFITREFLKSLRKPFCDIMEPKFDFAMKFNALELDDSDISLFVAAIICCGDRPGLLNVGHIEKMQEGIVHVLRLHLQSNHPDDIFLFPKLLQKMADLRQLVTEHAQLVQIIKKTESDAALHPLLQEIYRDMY
Description: PPAR-alpha activation in reporter cell lines. The class given is cell-based. The note with it: concentration of 10^−4 M. From the text:
FIG. 6 illustrates relative PPARα activation potential (%) in reporter cell lines using concentrations ranging from 10^−5M-10^−9M for the selective synthetic PPARα activator WY14,643 as well as the isolated compounds at a concentration of 10^−4M and a 1:10 aqueous solution of FE seed extract, with compound label: FE19028 (Nuzhenide, 3), FE20015 (G13, 4), FE20031 (oleoside dimethyl ester, 6), FE21008 (excelside A, 1), and FE21023 (GI5, 5);
PPAR-alpha activity of excelside A (1), GI3 (4), and oleoside dimethyl ester (6). Five single compounds isolated from Fraxinus excelsior (FE) seed water extract were tested for PPAR-alpha activity. The synthetic and selective PPAR alpha activator WY14,643 served as positive control and DMSO which was used to dissolve these compounds as negative control in the assay.

As for `C/C=C1\C(CC(=O)OC[C@H]2O[C@@H](OCCc3ccc(O)cc3)[C@H](O)[C@@H](O)[C@@H]2O)C(C(=O)OC)=CO[C@H]1O[C@@H]1O[C@H](CO)[C@@H](O)[C@H](O)[C@H]1O` (stereo partly drawn) [nuzhenide], the adipogenesis inhibitory activity result in the assay with 3T3-L1 cells is “mild”.

Regarding `C/C=C1\[C@H](O[C@@H]2O[C@H](CO)[C@@H](O)[C@H](O)[C@H]2O)OC=C(C(=O)OC)[C@H]1CC(=O)OC` [oleoside dimethyl ester], at PPAR-alpha, the PPAR-alpha activity result was “good activity”.

Turning to `C/C=C1/[C@H](O[C@@H]2O[C@H](CO[C@@H]3O[C@H](CO)[C@@H](O)[C@H](O)[C@H]3O)[C@@H](O)[C@H](O)[C@H]2O)OC=C(C(=O)OC)[C@H]1CC(=O)OC` [excelside A, (2S,3E,4S) 2H-Pyran-4-acetic acid-3-ethylidene-2-[(6-O-β-D-glucopyranosyl-β-D-glucopyranosyl)oxy]-3,4-dihydro-5-(methoxycarbonyl)methyl ester], the PPAR-alpha activity entry on PPAR-alpha was “good activity”.

Source of the values: patent publication US8293292B2, “Extract of Fraxinus excelsior seeds and therapeutic applications therefor” (Naturex, S.A., priority 2008, dated 2012).
